Measurements taken from patent US6270799A, “Medicament formulation with a controlled release of an active agent” (Bayer Aktiengesellscahft, priority 1997, dated 2001).

Legend:
water solubility = assay type: physicochemical; settings: compound I and/or its salts and/or hydrates
[1] = tested on: gram-negative and gram-positive bacteria; settings: against gram-negative and gram-positive bacteria; relative to sparfloxacin and ciprofloxacin; Drugs of the Future 1997, 22 (2): 109/113; cited from earlier work
[2] = absorption behaviour in the lower sections of the intestine; assay type: in vivo; settings: in contrast to ciprofloxacin
Text: It was therefore the object of the present invention to develop a drug formulation of the compound I and pharmaceutically tolerable salts thereof and/or their hydrates which meets the requirements described above. […] Only this surprising absorption behaviour of moxifloxacin, which is different from known quinolonecarboxylic acid antibiotics, opens up any possibility of developing a retard formulation of moxifloxacin.

| Structure (SMILES) | solubility (water solubility) | antibacterial action [1] | absorption in the lower sections of the intestine (colon, rectum) [2] |
| --- | --- | --- | --- |
| COc1c(N2C[C@@H]3CCCN[C@@H]3C2)c(F)cc2c(=O)c(C(=O)O)cn(C3CC3)c12 [compound I, 1-cyclopropyl-7-([S,S]-2,8-diazabicyclo[4.3. 0]non-8-yl)-6-fluoro-1,4-dihydro-8-methoxy-4-oxo-3-quino-lonecarboxylic acid] | ~24 mg/mL | frequently significantly better than that of sparfloxacin and ciprofloxacin |  |
| COc1c(N2C[C@@H]3CCCN[C@@H]3C2)c(F)cc2c(=O)c(C(=O)O)cn(C3CC3)c12 [compound II] |  |  | also absorbed in the lower sections of the intestine (colon, rectum) |
